Reference: patent US20240189287A1, “PERIPHERALLY RESTRICTED CB1 RECEPTOR BLOCKERS AND USES THEREOF” (BIONANOSIM (BNS) LTD, priority 2021, published 2024)
Read-outs that look alike come from different tables or passages of the source.

Experiments:
[1] = test system: C57Bl/6J mice; assay: CNS-mediated hyperactivity, locomotor activity (Promethion); format: in vivo; conditions: wild-type male C57Bl/6J mice
From the text: (§1) Locomotor activity: Locomotor activity was quantified by the number of disruptions of infrared XYZ beam arrays with a beam spacing of 0.25 cm in the Promethion High-Definition Behavioral Phenotyping System (Sable Instruments, Inc., Las Vegas, NV, USA).
(§2) The ability of BNS822 and BNS808 to induce CNS-mediated hyperactivity was further evaluated in a mouse model, using rimonabant (a brain penetrant CB1 receptor blocker) as a positive control. Mice (wild-type male C57Bl/6J) received a single dose of rimonabant (10 mg/kg IP), BNS822 (20 mg/kg PO) BNS 808 (1, 10 mg/kg PO) or vehicle; ambulatory activity was measured by the Promethion Metabolic System (Sable Instruments, Inc). In the same experimental scheme, BNS822, BNS808 and rimonabant were further studied regarding the potential to inhibit the hypomotility-induced by a CB1 receptor agonist, HU210, after a single dose of rimonabant (10 mg/kg IP), BNS822 (20 mg/kg PO) BNS808 (1, 10 mg/kg PO) or vehicle and a single dose of HU210 (30 μg/kg IP) 30 min after.

[2] = Tissue distribution: brain, plasma and liver levels after oral dosing; format: in vivo, C57BL/6J mice
Experimental: Tissue distribution and pharmacokinetics: Tissue levels of antagonist: 3 male C57BL/6J mice (7-9 weeks, PO group) were used in this study. Mice were fasted prior to administration of test article and had access to food 4 hours post dosing. Appropriate amount of test article was accurately weighted and mixed with the appropriate volume of vehicle to get a clear oral solution. The formulation was prepared on the day of dosing, and mice were dosed via oral gavage up to 4 hr after formulation was prepared. After 1 hour, mice were scarified and about 200 μL blood was collected from cardiac puncture followed by plasma preparation. Brain and liver were removed and further processed. Dose formulation and sample analysis was performed by LC-MS/MS method.
The peripherality of selected BB8 conjugates (BNS) was evaluated in vivo measuring their respective brain, plasma, and liver levels 1 hr following 10 mg/kg oral administration.

[3] = test system: C57Bl/6J mice; assay: Inhibition of HU210-induced hypomotility; format: in vivo; conditions: HU210 30 μg/kg IP 30 min after
From the text: as §1, §2

[4] = test system: Salmonella typhimurium (TA98, TA100); conditions: for increase in reversion over the negative control: TA98 and TA100, with and without S9
[5] = test system: HepG2 Cells; assay: Cell Viability Assay in HepG2 Cells at 72 h; format: cell-based, human; conditions: Homo sapiens, HepG2, 72 h
Experimental: The liver plays a central role in transforming and clearing chemicals, and therefore is susceptible to toxicity of these agents. BNS808, BNS822 and other selected compounds were tested in the HepG2 assay using […] to evaluate cytotoxicity.

[6] = test system: P-gp (MDR1, ABCB1); assay: MDR1-MDCK II cell permeation assay (bi-directional permeability, P-gp efflux); format: in vitro ADME; conditions: dog, MDCK-MDR1, pH 7.4
Experimental: (§3) Test and reference compounds were diluted with transport buffer (HBSS with 10 mM Hepes, pH 7.4) from stock solution to a concentration of 2 μM (DMSO<1%) and applied to the apical or basolateral side of the cell monolayer. Permeation of the test compounds from A to B direction or B to A direction was determined in duplicate with/without P-gp inhibitor (GF120918, 10 μM). […] The plate was incubated for 2.5 hours in CO2 incubator at 37±1° C., with 5% CO2 at saturated humidity without shaking. In addition, the efflux ratio of each compound was also determined. Test and reference compounds were quantified by LC-MS/MS analysis based on the peak area ratio of analyte/IS.
(§4) The in vitro bi-directional permeability across MDR1-MDCKII cells including P-glycoprotein (Pgp, ABCB1) efflux in the presence and absence of a P-gp inhibitor is an indicator as to the tendency of an orally administered compound to penetrate the brain.

[7] = test system: MDR1-MDCKII cells; assay: as above; format: in vitro ADME
Experimental: as §3, §4

[8] = target: hERG potassium channels (Homo sapiens (Human), UniProt Q12809); assay: hERG assay, automated patch clamp (SyncroPatch 384PE); format: cell-based; conditions: for potential for cardiotoxicity (QT prolongation): acceptance criteria IC50>100* Ki; for IC50: whole cell hERG currents
hERG potassium channels, sequence (Q12809 whole entry): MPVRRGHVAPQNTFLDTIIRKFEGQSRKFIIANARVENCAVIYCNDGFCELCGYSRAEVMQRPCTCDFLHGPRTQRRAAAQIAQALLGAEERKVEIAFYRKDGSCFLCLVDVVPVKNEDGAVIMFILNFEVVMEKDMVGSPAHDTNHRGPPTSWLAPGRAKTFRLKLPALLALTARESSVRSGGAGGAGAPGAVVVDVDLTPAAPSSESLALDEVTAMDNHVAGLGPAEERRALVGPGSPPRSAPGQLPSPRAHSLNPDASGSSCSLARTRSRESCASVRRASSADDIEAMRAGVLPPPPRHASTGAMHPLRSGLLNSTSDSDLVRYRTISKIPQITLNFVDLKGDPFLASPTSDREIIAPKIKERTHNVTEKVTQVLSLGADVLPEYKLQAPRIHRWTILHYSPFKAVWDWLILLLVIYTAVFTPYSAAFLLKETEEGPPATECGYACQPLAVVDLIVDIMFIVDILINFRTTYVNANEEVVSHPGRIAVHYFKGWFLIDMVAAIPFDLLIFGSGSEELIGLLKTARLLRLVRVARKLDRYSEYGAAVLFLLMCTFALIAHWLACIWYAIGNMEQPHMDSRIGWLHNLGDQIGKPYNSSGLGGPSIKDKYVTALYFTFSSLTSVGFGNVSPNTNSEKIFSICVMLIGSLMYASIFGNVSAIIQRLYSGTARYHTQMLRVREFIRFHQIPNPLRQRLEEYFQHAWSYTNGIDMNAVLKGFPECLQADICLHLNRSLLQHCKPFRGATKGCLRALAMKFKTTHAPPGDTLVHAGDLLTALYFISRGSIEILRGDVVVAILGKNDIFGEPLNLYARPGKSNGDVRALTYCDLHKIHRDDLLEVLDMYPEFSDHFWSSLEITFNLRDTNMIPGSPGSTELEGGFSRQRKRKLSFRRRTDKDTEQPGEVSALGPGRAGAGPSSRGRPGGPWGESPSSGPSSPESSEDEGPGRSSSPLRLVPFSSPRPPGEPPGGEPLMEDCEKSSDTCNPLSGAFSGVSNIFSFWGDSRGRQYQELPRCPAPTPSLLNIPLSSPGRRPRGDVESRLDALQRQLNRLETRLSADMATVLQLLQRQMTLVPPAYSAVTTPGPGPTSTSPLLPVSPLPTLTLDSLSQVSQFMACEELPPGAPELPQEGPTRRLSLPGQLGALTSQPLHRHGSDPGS

[9] = male, C57BL/6J, mouse, in vivo, po, 10 mg/kg

SMILES: O=S(=O)(NC1CCCOc2c1nn(-c1ccccc1Cl)c2-c1ccc(Cl)cc1)c1ccc(Cl)cc1 (stereo not shown) [BNS808, 4-chloro-N-[2-(2-chlorophenyl)-3-(4-chlorophenyl)-5,6,7,8-tetrahydrooxepino[3,2-c]pyrazol-8-yl]benzenesulfonamide]
- locomotor activity (CNS-mediated hyperactivity) ([1]; single dose 1, 10 mg/kg PO): no locomotor effects
- Liver/Plasma ratio ([2]; 1 h post 10 mg/kg oral administration, C57BL/6J male mice): 13.0
- Kp at 1 h ([2]; mouse, in vivo, 1 h post 10 mg/kg oral administration, C57BL/6J male mice, read-out: Brain/Plasma ratio): 1.07
- effect on HU210-induced hypomotility ([3]; single dose 1, 10 mg/kg PO): apparent lack of effects
- toxicity on AMES strains [4]: no toxicity
- AMES result (positive/negative) ([4]; TA98, S9 no): negative
- AMES result (positive/negative) ([4]; TA98, S9 yes): negative
- increase in reversion over the negative control [4]: < 2 fold
- AMES result (positive/negative) ([4]; TA100, S9 no): negative
- AMES result (positive/negative) ([4]; TA100, S9 yes): negative
- IC50 ([5]; read-out: Absolute IC50 (μM)): 26.2 µM
- IC50 ([5]; read-out: Relative IC50 (μM)): 16.8 µM
- efflux ratio at 2.5 h, 2 μM ([6]; efflux ratio in the presence of P-gp inhibitor GF120918, read-out: MDR1 B:A/A:B (+P-gp inhibitor)): 1.88
- Rank Papp ([7]; MDCK-MDR1): Low
- MDR1 B:A/A:B ([7]; efflux ratio, without P-gp inhibitor): 3.95
- Hill slope [8]: 0.89
- potential for cardiotoxicity (QT prolongation) [8]: low
- IC50 [8]: 5.39 µM

SMILES: Cc1ccc(C)c(OCCCC(C)(C)C(=O)NC2CCCOc3c2nn(-c2ccccc2Cl)c3-c2ccc(Cl)cc2)c1 (stereo not shown) [BNS822, N-[2-(2-chlorophenyl)-3-(4-chlorophenyl)-5,6,7,8-tetrahydrooxepino[3,2-c]pyrazol-8-yl]-5-(2,5-dimethylphenoxy)-2,2-dimethyl-pentanamide]
- locomotor activity (CNS-mediated hyperactivity) ([1]; single dose 20 mg/kg PO): no locomotor effects
- Kp at 1 h [2, 9]: < 0.02
- concentration at 1 h [2, 9]: 1.34 ng/g
- Brain/Plasma ratio ([2]; male, C57BL/6J, mouse, in vivo, po, 10 mg/kg, 1 h): <0.02
- effect on HU210-induced hypomotility ([3]; single dose 20 mg/kg PO): apparent lack of effects
- toxicity on AMES strains [4]: no toxicity
- AMES result (positive/negative) ([4]; TA98, S9 no): negative
- AMES result (positive/negative) ([4]; TA98, S9 yes): negative
- increase in reversion over the negative control [4]: < 2 fold
- AMES result (positive/negative) ([4]; TA100, S9 no): negative
- AMES result (positive/negative) ([4]; TA100, S9 yes): negative
- IC50 ([5]; read-out: Absolute IC50): > 100 µM
- IC50 ([5]; read-out: Relative IC50): > 100 µM
- Papp at 2.5 h, 2 μM ([6]; 2 μM, A to B, 2.5 hours): < 0.02 ×10⁻⁶ cm/s
- efflux ratio at 2.5 h, 2 μM ([6]; efflux ratio, without P-gp inhibitor, read-out: MDR1 B:A/A:B): > 3.62
- P-gp substrate [7]: P-gp substrates and Yes
- Rank Papp [7]: Low
- potential for cardiotoxicity (QT prolongation) [8]: low
- IC50 [8]: > 30 µM
